# Assay results reported in PMC10951960, “CGP7930 - An allosteric modulator of GABABRs, GABAARs and inwardly-rectifying potassium channels” (Neuropharmacology, 2023).
# Target: T1, neuronal GABABRs (Rattus norvegicus, UniProt O88871+Q9Z0U4)
# T1 construct: endogenous in cells; host or cells: cultured rat (E18 Sprague-Dawley) hippocampal neurons, 12-17 DIV
# Experiment: baclofen-activated GIRK currents in hippocampal cultures, high external K+, whole-cell voltage clamp
# Format: cell-based
# Settings: read-out: EC50 for CGP7930 potentiation of baclofen response
# Method: Briefly, single cells derived from dissected hippocampi were seeded onto glass coverslips coated with poly-D-lysine in a plating medium containing minimum essential media with 5% v/v heat-inactivated FCS, 5% v/v heat-inactivated horse serum, penicillin-G/streptomycin (100 U/100 μg/ml), 2 mM L-glutamine, and 20 mM glucose. Two hr after plating the media was changed to a Neurobasal-A based maintenance media supplemented with 1% v/v B-27, penicillin-G/streptomycin (100 U/100 μg/ml), 0.5% v/v Glutamax and 35 mM glucose.
# Spontaneous inhibitory postsynaptic currents (sIPSCs) were recorded from cultured hippocampal neurons at 12–17 days in vitro (DIV). […] GABABR-activated K^+ currents in cultured neurons were recorded in the additional presence of 2 mM kynurenic acid and 20 μM picrotoxin.
# Borosilicate glass electrodes (3–5 MΩ) were filled with a K^+-based internal solution for recording GIRK currents containing (mM): 120 KCl, 2 MgCl2, 11 EGTA, 30 KOH, 10 HEPES, 1 CaCl2, 1 GTP, 2 ATP, 14 creatine phosphate, pH 7.0. GABAAR currents and sIPSCs were recorded with a Cs-based internal solution containing (mM): 120 CsCl, 1 MgCl2, 11 EGTA, 30 KOH, 10 HEPES, 1 CaCl2, and 2 K2ATP; pH 7.2. […] Cells were held at −60 mV (sIPSCs) or −60/−70 mV (K^+ currents). Voltage clamp recordings were undertaken after optimising series resistance (Rs, <10 MΩ) and compensating for the whole-cell membrane capacitance. […]
# T1 sequence (Q9Z0U4 17-960 limits assumed): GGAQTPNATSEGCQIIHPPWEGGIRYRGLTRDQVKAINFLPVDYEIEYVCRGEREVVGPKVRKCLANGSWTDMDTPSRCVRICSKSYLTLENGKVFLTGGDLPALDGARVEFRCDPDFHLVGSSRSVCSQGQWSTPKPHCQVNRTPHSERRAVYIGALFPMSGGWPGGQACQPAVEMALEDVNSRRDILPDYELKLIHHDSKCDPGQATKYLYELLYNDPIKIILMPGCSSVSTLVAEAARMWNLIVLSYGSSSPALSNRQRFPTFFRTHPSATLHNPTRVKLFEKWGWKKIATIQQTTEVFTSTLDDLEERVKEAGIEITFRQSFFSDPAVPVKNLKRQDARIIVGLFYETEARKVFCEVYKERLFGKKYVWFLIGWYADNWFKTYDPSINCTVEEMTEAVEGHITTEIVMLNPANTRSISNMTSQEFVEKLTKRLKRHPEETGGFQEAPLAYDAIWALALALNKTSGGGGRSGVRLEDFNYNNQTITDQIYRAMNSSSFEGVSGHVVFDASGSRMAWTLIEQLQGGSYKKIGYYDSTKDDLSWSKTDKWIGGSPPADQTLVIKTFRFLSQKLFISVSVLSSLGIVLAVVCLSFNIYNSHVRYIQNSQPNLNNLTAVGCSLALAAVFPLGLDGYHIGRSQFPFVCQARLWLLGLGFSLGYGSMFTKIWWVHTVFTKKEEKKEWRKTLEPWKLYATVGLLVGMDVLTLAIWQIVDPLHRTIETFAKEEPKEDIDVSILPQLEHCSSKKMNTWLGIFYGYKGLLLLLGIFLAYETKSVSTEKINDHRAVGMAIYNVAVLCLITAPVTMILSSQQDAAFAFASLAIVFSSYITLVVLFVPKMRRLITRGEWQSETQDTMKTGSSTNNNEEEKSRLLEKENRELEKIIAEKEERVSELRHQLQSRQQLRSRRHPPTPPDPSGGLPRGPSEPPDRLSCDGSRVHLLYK
# T1 sequence (O88871 41-940): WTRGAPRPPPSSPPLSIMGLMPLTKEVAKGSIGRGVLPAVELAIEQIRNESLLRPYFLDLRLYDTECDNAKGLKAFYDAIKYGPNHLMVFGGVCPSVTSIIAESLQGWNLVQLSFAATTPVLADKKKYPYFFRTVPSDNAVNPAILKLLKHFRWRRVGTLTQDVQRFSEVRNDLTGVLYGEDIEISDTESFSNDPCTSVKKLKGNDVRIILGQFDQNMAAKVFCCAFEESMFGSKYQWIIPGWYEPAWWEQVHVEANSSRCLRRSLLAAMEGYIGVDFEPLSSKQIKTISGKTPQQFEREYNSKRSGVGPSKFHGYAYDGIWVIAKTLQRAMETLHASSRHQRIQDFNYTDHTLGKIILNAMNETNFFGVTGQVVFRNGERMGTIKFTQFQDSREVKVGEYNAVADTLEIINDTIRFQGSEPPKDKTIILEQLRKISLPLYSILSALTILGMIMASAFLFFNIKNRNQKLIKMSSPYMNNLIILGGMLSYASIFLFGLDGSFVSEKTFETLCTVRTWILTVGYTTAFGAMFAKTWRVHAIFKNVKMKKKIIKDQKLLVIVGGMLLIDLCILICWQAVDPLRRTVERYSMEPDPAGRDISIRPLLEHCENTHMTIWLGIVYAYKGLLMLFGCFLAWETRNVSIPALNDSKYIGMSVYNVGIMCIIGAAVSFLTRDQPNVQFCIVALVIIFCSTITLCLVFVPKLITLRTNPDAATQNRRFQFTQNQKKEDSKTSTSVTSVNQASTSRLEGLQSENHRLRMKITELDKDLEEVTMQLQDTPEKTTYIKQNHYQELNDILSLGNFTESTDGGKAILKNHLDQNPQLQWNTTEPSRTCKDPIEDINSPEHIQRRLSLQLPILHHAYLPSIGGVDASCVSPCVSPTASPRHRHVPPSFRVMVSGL
structure (smiles),measurement,value
"CC(C)(CO)Cc1cc(C(C)(C)C)c(O)c(C(C)(C)C)c1 [CGP7930, 3-(3′,5′-Di-tert-butyl-4′-hydroxy) phenyl-2,2-dimethylpropanol]",EC50,0.9 ± 0.6 µM
